Tests used:
[1] = test system: Dirofilaria immitis R isolate (reduced sensitivity to macrocyclic lactones); assay: Method D study 1: efficacy against induced D. immitis infection in beagle dogs (R isolate); type: in vivo; details: beagles
[2] = test system: Dirofilaria immitis S isolate (sensitive to macrocyclic lactones); assay: Method D study 2: efficacy against induced D. immitis infection in beagle dogs (S isolate); type: in vivo; details: beagles
[3] = oral solution 2.5 mg/kg + ivermectin 6 μg/kg, days 0, 32, 60, 90 & 119, necropsy Day 150

| SMILES | Efficacy [1, 3] [%] | further results |
| --- | --- | --- |
| CC(C)C[C@H]1C(=O)O[C@H](C)C(=O)N(C)[C@@H](CC(C)(C)F)C(=O)O[C@H](Cc2ccc(C(F)(F)F)cc2)C(=O)N(C)[C@@H](CC(C)C)C(=O)O[C@H](C)C(=O)N(C)[C@@H](CC(C)(C)F)C(=O)O[C@H](Cc2ccc(C(F)(F)F)cc2)C(=O)N1C [Compound 4-18] | 100 |  |
| CC(C)C[C@H]1C(=O)O[C@H](C)C(=O)N(C)[C@@H](CC(C)(C)F)C(=O)O[C@H](Cc2ccc(N3CCOCC3)cc2)C(=O)N(C)[C@@H](CC(C)C)C(=O)O[C@H](C)C(=O)N(C)[C@@H](CC(C)(C)F)C(=O)O[C@H](Cc2ccc(N3CCOCC3)cc2)C(=O)N1C [Compound 6-18] | 100 |  |
| CC(C)C[C@H]1C(=O)O[C@H](C)C(=O)N(C)[C@@H](CC(C)(C)F)C(=O)O[C@H](Cc2ccc(C3CCOCC3)cc2)C(=O)N(C)[C@@H](CC(C)C)C(=O)O[C@H](C)C(=O)N(C)[C@@H](CC(C)(C)F)C(=O)O[C@H](Cc2ccc(C3CCOCC3)cc2)C(=O)N1C [Compound 7-18] |  | Efficacy ([1]; oral solution 1.0 mg/kg + ivermectin 6 μg/kg, days 0, 32, 60, 90 & 119, necropsy Day 150): 100%; Efficacy ([2]; oral solution 0.5 mg/kg, days 0, 30, 60, 90 & 120, necropsy Day 155): 100%; Efficacy ([2]; oral solution 2.5 mg/kg, days 0, 30, 60 & 154, necropsy Day 155): 100% |
| CC(C)C[C@H]1C(=O)O[C@H](Cc2ccc(C3CCOCC3)cc2)C(=O)N(C)[C@@H](CC(C)C)C(=O)O[C@H](C)C(=O)N(C)[C@@H](CC(C)C)C(=O)O[C@H](Cc2ccc(C3CCOCC3)cc2)C(=O)N(C)[C@@H](CC(C)C)C(=O)O[C@H](C)C(=O)N1C [Compound 7-27] | 100 |  |
| CC(C)C[C@H]1C(=O)O[C@H](Cc2ccc(N3CCOCC3)cc2)C(=O)N(C)[C@@H](CC(C)C)C(=O)O[C@H](C)C(=O)N(C)[C@@H](CC(C)C)C(=O)O[C@H](Cc2ccc(N3CCOCC3)cc2)C(=O)N(C)[C@@H](CC(C)C)C(=O)O[C@H](C)C(=O)N1C [emodepside, reference compound] | 98.8 | Efficacy ([1]; oral solution 2.5 mg/kg + ivermectin 6 μg/kg, days 0, 32, 60, 90 & 119, necropsy Day 150, listed as Emodepside): 98.8% |

Reference: patent US12286455B2, “Anthelmintic depsipeptide compounds” (BOEHRINGER INGELHEIM ANIMAL HEALTH USA INC., priority 2015, dated 2025)
